From PubChem BioAssay (NCI)
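Growth conditions: 96-well plates. Treatment: test compound, 48 hours, 5 concentrations. Analysis: linear interpolation between bracketing concentrations; unreached endpoints set to highest concentration. GI50: concentration for 50% inhibition of growth. TGI: concentration producing complete growth inhibition.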

What was measured:
Assay in all cases: NCI tumour cell line growth inhibition, 48 h
CCRF-CEM leukemia = test system: CCRF-CEM leukemia
OVCAR-4 ovarian = test system: OVCAR-4 ovarian
MCF7 breast = test system: MCF7 breast
A549 NSCLC = test system: A549 NSCLC
HT29 colon = test system: HT29 colon
NCI-H226 lung = test system: NCI-H226 lung
K-562 leukemia = test system: K-562 leukemia
NCI-H522 lung = test system: NCI-H522 lung
COLO 205 colon = test system: COLO 205 colon
ACHN renal = test system: ACHN renal

SMILES | GI50 (CCRF-CEM leukemia) [µM] | TGI (CCRF-CEM leukemia) [µM] | GI50 (OVCAR-4 ovarian) [µM] | TGI (OVCAR-4 ovarian) [µM] | GI50 (MCF7 breast) [µM] | TGI (MCF7 breast) [µM] | GI50 (A549 NSCLC) [µM] | TGI (A549 NSCLC) [µM] | GI50 (HT29 colon) [µM] | GI50 (NCI-H226 lung) [µM] | TGI (NCI-H226 lung) [µM] | GI50 (K-562 leukemia) [µM] | TGI (K-562 leukemia) [µM] | GI50 (NCI-H522 lung) [µM] | GI50 (COLO 205 colon) [µM] | TGI (COLO 205 colon) [µM] | GI50 (ACHN renal) [µM] | TGI (ACHN renal) [µM] | TGI (HT29 colon) [µM] | TGI (NCI-H522 lung) [µM]
CN(C)c1ccc2c(c1)OC(N)=C(C#N)C2c1ccc2c(c1)CCO2 (stereo not drawn) | 0.216 | > 52.6 | 0.704 | > 100 | < 0.0211 | 32.3 | 0.198 | > 100 | 0.321 | 2.38 | > 62.4 | < 0.023 | > 100 | < 0.0239 | 0.28 | 3.39 | 0.0683 | > 67.1 | – | –
CCc1ccc(NC(=O)COC(=O)c2cc([N+](=O)[O-])ccc2Sc2nnnn2C)cc1 | 9.11 | 78.3 | 12.9 | 26.9 | 20.1 | 60.6 | 19.7 | 53.1 | 11.1 | 17 | 36.1 | 9.4 | 50.6 | 11.5 | 16 | 33.8 | 14.2 | 33.1 | 29.3 | 36.3
Clc1nc(Cl)c2ncn(C/C=C/COc3cccc(OC/C=C/Cn4cnc5c(Cl)nc(Cl)nc54)c3)c2n1 | 31 | > 100 | 36.3 | > 100 | 73.5 | > 100 | > 100 | > 100 | > 100 | > 100 | > 100 | 29.7 | > 100 | > 100 | > 100 | > 100 | > 100 | > 100 | > 100 | > 100
Nc1nc(Nc2ccc(C3CCC(N4CCOCC4)CC3)cc2)nn1-c1ccccn1 (stereo not drawn) | 3.25 | 55.9 | 12.4 | > 84.9 | 3.23 | 35.3 | 4.08 | > 100 | 3.11 | 2.4 | > 58.4 | 2.83 | > 100 | 8.51 | 5.17 | > 100 | 4.26 | > 100 | > 100 | 32.7
O=C(NN1C(=O)CSC12CCCC2)c1[nH]c2ccc(Br)cc2c1-c1ccccc1 | 40.1 | > 100 | 24.7 | > 100 | 37.2 | > 100 | 35.5 | > 100 | 30.7 | > 100 | > 100 | 18.7 | 43.2 | 30.4 | 53.4 | > 100 | > 100 | > 100 | > 100 | > 100
O=c1nc2oc3ccc4ccccc4c3cc-2s1 | 0.989 | > 100 | 58.4 | > 100 | 0.485 | > 100 | > 92.7 | > 100 | 18 | 17.7 | > 100 | 0.526 | > 100 | 0.596 | 16.3 | > 100 | 38.6 | > 100 | > 100 | > 100
O=C(Nc1ccc(Cl)c(Cl)c1)O/N=C\c1c(Cl)ccc([N+](=O)[O-])c1Cl | 1.88 | 5.1 | 1.74 | 3.14 | 0.404 | 2 | 2.96 | 10.3 | 1.91 | 3.06 | 12.4 | 0.825 | 6.56 | 1.34 | 2.4 | 4.81 | 1.65 | 3.33 | 3.53 | 2.88
CCCCN(CCCC)c1ccc(C(=N)c2ccc(N(CCCC)CCCC)cc2)cc1 | 0.557 | 2.27 | 0.373 | 1.4 | 0.389 | 1.44 | 0.72 | 2.07 | 0.282 | 0.593 | 1.97 | 0.287 | 1.1 | 0.232 | 0.322 | 1.05 | 0.402 | 1.48 | 1.03 | 0.727
COc1ccc2c(c1)C(=O)c1c-2c(N(C)C)nc2ccccc12 | > 100 | > 100 | 90.2 | > 100 | > 100 | > 100 | > 100 | > 100 | > 100 | > 100 | > 100 | > 100 | > 100 | > 100 | > 100 | > 100 | > 100 | > 100 | > 100 | > 100
